The text below walks through data of patent US20240376099A1, “COMPOUNDS AND COMPOSITIONS AS INHIBITORS OF ENDOSOMAL TOLL-LIKE RECEPTORS” (Novartis AG, priority 2016, published 2024).

A word on the IC50: it is the midpoint of a concentration-inhibition curve.

The structures appear in SMILES notation.

The target of the assay is T1, TLR7 (Homo sapiens, UniProt Q9NYK1).
T1 construct: Fresh blood was collected from normal human donors; endogenous in cells; host or cells: human PBMCs from fresh donor blood
T1 sequence (Q9NYK1 27-1049): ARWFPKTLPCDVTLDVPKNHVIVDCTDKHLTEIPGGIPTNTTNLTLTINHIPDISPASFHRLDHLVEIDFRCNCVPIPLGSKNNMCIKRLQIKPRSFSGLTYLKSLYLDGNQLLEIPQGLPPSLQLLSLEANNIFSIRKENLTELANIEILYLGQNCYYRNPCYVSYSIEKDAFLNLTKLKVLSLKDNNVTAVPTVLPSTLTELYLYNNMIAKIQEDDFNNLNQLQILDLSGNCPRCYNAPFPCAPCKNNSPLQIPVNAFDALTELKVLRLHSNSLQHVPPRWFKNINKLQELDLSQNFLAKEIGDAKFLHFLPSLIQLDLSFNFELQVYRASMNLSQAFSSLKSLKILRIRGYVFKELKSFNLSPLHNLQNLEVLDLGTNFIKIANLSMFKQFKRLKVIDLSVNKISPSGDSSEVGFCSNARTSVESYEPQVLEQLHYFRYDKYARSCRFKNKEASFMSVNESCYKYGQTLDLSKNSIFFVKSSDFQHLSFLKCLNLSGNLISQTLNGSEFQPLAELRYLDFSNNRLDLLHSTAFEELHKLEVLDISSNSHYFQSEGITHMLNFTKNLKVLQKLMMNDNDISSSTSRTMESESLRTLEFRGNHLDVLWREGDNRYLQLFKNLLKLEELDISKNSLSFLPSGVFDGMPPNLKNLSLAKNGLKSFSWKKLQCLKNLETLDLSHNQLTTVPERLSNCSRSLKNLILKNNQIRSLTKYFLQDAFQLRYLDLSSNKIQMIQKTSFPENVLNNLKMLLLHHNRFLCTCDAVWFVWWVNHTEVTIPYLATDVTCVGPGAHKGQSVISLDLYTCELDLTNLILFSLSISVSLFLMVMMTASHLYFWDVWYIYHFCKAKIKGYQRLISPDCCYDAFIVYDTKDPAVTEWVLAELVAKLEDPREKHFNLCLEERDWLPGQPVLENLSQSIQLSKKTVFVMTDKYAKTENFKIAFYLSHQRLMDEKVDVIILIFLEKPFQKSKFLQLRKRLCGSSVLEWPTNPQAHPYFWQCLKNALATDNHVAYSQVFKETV
Put plainly: huPBMC TLR7 Antagonist IFNα Assay. It is filed as cell-based. As to conditions: human PBMCs stimulated with ssRNA40 10 μg/mL (DOTAP), 14-16 hrs; IFNα2b AlphaLISA read-out. An outline of the steps:
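Human PBMCs from fresh donor blood (150,000 cells/well) stimulated 14–16 h at 37 °C with DOTAP-complexed ssRNA40 (final 1 μg/ml for TLR8, 10 μg/mL for TLR7) or ODN2216 (final 0.3 μM, TLR9), 0.25% DMSO, ten-point 1/3 compound dilutions. Supernatant IL-6 read by HTRF (TLR8); IFNα by IFNα2b AlphaLISA (TLR7/TLR9).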
As to `Cc1cc(N2CCc3c(c(C)nn3CC34CCC(NCC(C)(C)O)(CC3)CC4)C2)c2cnn(C)c2n1` [compound 123, 1-((4-((5-(1,6-dimethyl-1H-pyrazolo[3,4-b]pyridin-4-yl)-3-methyl-4,5,6,7-tetrahydro-1H-pyrazolo[4,3-c]pyridin-1-yl)methyl)bicyclo[2.2.2]octan-1-yl)amino)-2-methylpropan-2-ol], the IC50 was determined as 24 nM.

Consider `COCCNC12CCC(Cn3nc(C)c4c3CCN(c3cc(C)nc5c3cnn5C)C4)(CC1)OC2` [compound 102, 1-((5-(1,6-dimethyl-1H-pyrazolo[3,4-b]pyridin-4-yl)-3-methyl-4,5,6,7-tetrahydro-1H-pyrazolo[4,3-c]pyridin-1-yl)methyl)-N-(2-methoxyethyl)-2-oxabicyclo[2.2.2]octan-4-amine], for which the IC50 came out at 22 nM. Regarding `Cc1nc(N2CCc3c(c(C)nn3CC34CCC(NC(=O)[C@H]5CNCCO5)(CC3)CC4)C2)c2c(n1)c(C)nn2C` [compound 36, (R)-N-(4-((3-methyl-5-(1,3,5-trimethyl-1H-pyrazolo[4,3-d]pyrimidin-7-yl)-4,5,6,7-tetrahydro-1H-pyrazolo[4,3-c]pyridin-1-yl)methyl)bicyclo[2.2.2]octan-1-yl)morpholine-2-carboxamide], the concentration for half-maximal inhibition (IC50) is 7 nM.

Turning to `Cc1nc(N2CCc3c(c(C)nn3CC34CCC(N5CCOCC5)(CC3)CC4)C2)c2cnn(C)c2n1` [compound 19, 4-(4-((5-(1,6-dimethyl-1H-pyrazolo[3,4-d]pyrimidin-4-yl)-3-methyl-4,5,6,7-tetrahydro-1H-pyrazolo[4,3-c]pyridin-1-yl)methyl)bicyclo[2.2.2]octan-1-yl)morpholine], the half-maximal inhibitory concentration (IC50) came out at 55 nM.

In the case of `[2H]C([2H])([2H])N(C([2H])([2H])[2H])C12CCC(Cn3nc(C)c4c3CCN(c3nc(C)nc5c(C)nn(C)c35)C4)(CC1)CC2` [compound 40, 4-((3-methyl-5-(1,3,5-trimethyl-1H-pyrazolo[4,3-d]pyrimidin-7-yl)-4,5,6,7-tetrahydro-1H-pyrazolo[4,3-c]pyridin-1-yl)methyl)-N,N-bis(trideuteromethyl)bicyclo[2.2.2]octan-1-amine], the concentration for half-maximal inhibition (IC50) is 70 nM. Regarding `Cc1c2c(nn1CC13CCC(N)(CC1)CC3)CCN(c1ccnc3[nH]ncc13)C2` [compound 42, 4-((3-methyl-5-(1H-pyrazolo[3,4-b]pyridin-4-yl)-4,5,6,7-tetrahydro-2H-pyrazolo[4,3-c]pyridin-2-yl)methyl)bicyclo[2.2.2]octan-1-amine], the IC50 is 17 nM.

As for `Cc1cc(N2CCc3c(c(C)nn3CC34CCC(N5CCOC[C@@H]5C)(CC3)CC4)C2)c2cnn(C)c2n1` [compound 128, (S)-4-(4-((5-(1,6-dimethyl-1H-pyrazolo[3,4-b]pyridin-4-yl)-3-methyl-4,5,6,7-tetrahydro-1H-pyrazolo[4,3-c]pyridin-1-yl)methyl)bicyclo[2.2.2]octan-1-yl)-3-methylmorpholine], the half-maximal inhibitory concentration (IC50) was determined as 6 nM. Take `Cc1cc(N2CCc3c(c(C)nn3CC34CCC(NC5COC5)(CC3)CC4)C2)c2cnn(C)c2n1` [Compound No. 6, N-(4-((5-(1,6-dimethyl-1H-pyrazolo[3,4-b]pyridin-4-yl)-3-methyl-4,5,6,7-tetrahydro-1H-pyrazolo[4,3-c]pyridin-1-yl)methyl)bicyclo[2.2.2]octan-1-yl)oxetan-3-amine]: the IC50 is 19 nM. Regarding `COCCNC12CCC(Cn3nc(C)c4c3CCN(c3ccnc(-c5ccccc5)c3)C4)(CC1)CC2` [compound 130, N-(2-methoxyethyl)-4-((3-methyl-5-(2-phenylpyridin-4-yl)-4,5,6,7-tetrahydro-1H-pyrazolo[4,3-c]pyridin-1-yl)methyl)bicyclo[2.2.2]octan-1-amine], the IC50 is 1330 nM. Turning to `Cc1nc(N2CCc3c(c(C)nn3CC34CCC(NC5CCC5)(CC3)CC4)C2)c2c(n1)c(C)nn2C` [compound 27, N-cyclobutyl-4-((3-methyl-5-(1,3,5-trimethyl-1H-pyrazolo[4,3-d]pyrimidin-7-yl)-4,5,6,7-tetrahydro-1H-pyrazolo[4,3-c]pyridin-1-yl)methyl)bicyclo[2.2.2]octan-1-amine], the IC50 turned out to be 15 nM. Take `Cc1nn(CC23CCC(N)(CC2)CC3)c2c1CN(c1nc(Cl)nc3cnn(C)c13)CC2` [compound 15, 4-((5-(5-chloro-1-methyl-1H-pyrazolo[4,3-d]pyrimidin-7-yl)-3-mehtyl-4,5,6,7-tetrahydro-1H-pyrazolo[4,3-c]pyridin-1-yl)methyl)bicyclo[2.2.2]octan-1-amine]: the IC50 was 288 nM. The same measure for `Cc1cc(N2CCc3c(c(C)nn3CC34CCC(NC(=O)CN5CC(F)C5)(CC3)CC4)C2)c2cnn(C)c2n1` [Compound No. 133, N-(4-((5-(1,6-dimethyl-1H-pyrazolo[3,4-b]pyridin-4-yl)-3-methyl-4,5,6,7-tetrahydro-1H-pyrazolo[4,3-c]pyridin-1-yl)methyl)bicyclo[2.2.2]octan-1-yl)-2-(3-fluoroazetidin-1-yl)acetamide]: 12 nM; for `Cc1cc(N2CCc3c(c(C)nn3CC34CCC(NC(=O)CN5CC(O)C5)(CC3)CC4)C2)c2cnn(C)c2n1` [Compound No. 136, N-(4-((5-(1,6-dimethyl-1H-pyrazolo[3,4-b]pyridin-4-yl)-3-methyl-4,5,6,7-tetrahydro-1H-pyrazolo[4,3-c]pyridin-1-yl)methyl)bicyclo[2.2.2]octan-1-yl)-2-(3-hydroxyazetidin-1-yl)acetamide]: 6 nM. With `CN[C@@H](C)C(=O)NC12CCC(Cn3nc(C)c4c3CCN(c3cc(C)nc5c3cnn5C)C4)(CC1)CC2` [compound 118], the IC50 was determined as 2 nM. In the case of `Cc1cc(N2CCc3c(c(C(F)(F)F)nn3CC34CCC(N)(CC3)CC4)C2)c2cnn(C)c2n1` [compound 45, 4-((5-(1,6-dimethyl-1H-pyrazolo[3,4-b]pyridin-4-yl)-3-(trifluoromethyl)-4,5,6,7-tetrahydro-1H-pyrazolo[4,3-c]pyridin-1-yl)methyl)bicyclo[2.2.2]octan-1-amine], the IC50 is 38 nM.

Turning to `Cc1cc(N2CCc3c(c(C)nn3CC34CCC(NCC5CCC5)(CC3)CO4)C2)c2cnn(C)c2n1` [compound 112, N-(cyclobutylmethyl)-1-((5-(1,6-dimethyl-1H-pyrazolo[3,4-b]pyridin-4-yl)-3-methyl-4,5,6,7-tetrahydro-1H-pyrazolo[4,3-c]pyridin-1-yl)methyl)-2-oxabicyclo[2.2.2]octan-4-amine], the IC50 was determined as 24 nM.

As for `CCNC12CCC(Cn3nc(C)c4c3CCN(c3ccnc(-c5ccccc5)c3)C4)(CC1)CC2` [compound 127, N-ethyl-4-((3-methyl-5-(2-phenylpyridin-4-yl)-4,5,6,7-tetrahydro-1H-pyrazolo[4,3-c]pyridin-1-yl)methyl)bicyclo[2.2.2]octan-1-amine], the IC50 came out at 259 nM.

With `Cc1c2c(nn1CC13CCC(N)(CC1)CC3)CCN(c1nc(N)nc3c1cnn3C)C2` [compound 14, 4-(2-((4-aminobicyclo[2.2.2]octan-1-yl)methyl)-3-methyl-6,7-dihydro-2H-pyrazolo[4,3-c]pyridin-5(4H)-yl)-1-methyl-1H-pyrazolo[3,4-d]pyrimidin-6-amine], the IC50 was determined as 241 nM. For the molecule `Cc1nn(CC23CCC(N)(CC2)CC3)c2c1CN(c1nc(N)nc3c1cnn3C)CC2` [compound 13, 4-(1-((4-aminobicyclo[2.2.2]octan-1-yl)methyl)-3-methyl-6,7-dihydro-1H-pyrazolo[4,3-c]pyridin-5(4H)-yl)-1-methyl-1H-pyrazolo[3,4-d]pyrimidin-6-amine], the IC50 was 42 nM.

Take `COCCNC12CCC(Cn3nc(C)c4c3CCN(c3nc(C)nc5c(C)nn(C)c35)C4)(CC1)CC2` [compound 18, N-(2-methoxyethyl)-4-((3-methyl-5-(1,3,5-trimethyl-1H-pyrazolo[4,3-d]pyrimidin-7-yl)-4,5,6,7-tetrahydro-1H-pyrazolo[4,3-c]pyridin-1-yl)methyl)bicyclo[2.2.2]octan-1-amine]: the IC50 was determined as 245 nM.

For the molecule `Cc1nc(N2CCc3c(c(C)nn3CC34CCC(NCC5COC5)(CC3)CC4)C2)c2c(n1)c(C)nn2C` [compound 23, 4-((3-methyl-5-(1,3,5-trimethyl-1H-pyrazolo[4,3-c]pyrimidin-7-yl)-4,5,6,7-tetrahydro-1H-pyrazolo[4,3-c]pyridin-1-yl)methyl)-N-(oxetan-3-ylmethyl)bicyclo[2.2.2]octan-1-amine], the IC50 worked out at 666 nM.
